ChEMBL document CHEMBL3627688, “Structure-based hybridization, synthesis and biological evaluation of novel tetracyclic heterocyclic azathioxanthone analogues as potential antitumor agents” (Eur J Med Chem, 2015)

Columns and labels:
SK-MEL-28 = experiment: Growth inhibition of human SK-MEL-28 cells assessed as cell growth at 10 uM incubated for 48 hrs by sulforhodamine B assay; type: functional; details: SK-MEL-28, 48 h, read-out: Activity
SK-MEL-2 = experiment: Growth inhibition of human SK-MEL-2 cells assessed as cell growth at 10 uM incubated for 48 hrs by sulforhodamine B assay; type: functional; details: SK-MEL-2, 48 h, read-out: Activity
M14 = experiment: Growth inhibition of human M14 cells assessed as cell growth at 10 uM incubated for 48 hrs by sulforhodamine B assay; type: functional; details: M14, 48 h, read-out: Activity
Malme-3M = experiment: Growth inhibition of human MALME-3M cells assessed as cell growth at 10 uM incubated for 48 hrs by sulforhodamine B assay; type: functional; details: read-out: Activity
U-251 = experiment: Growth inhibition of human U251 cells assessed as cell growth at 10 uM incubated for 48 hrs by sulforhodamine B assay; type: functional; details: U-251, 48 h, read-out: Activity
SNB-19 = experiment: Growth inhibition of human SNB19 cells assessed as cell growth at 10 uM incubated for 48 hrs by sulforhodamine B assay; type: functional; details: SNB-19, 48 h, read-out: Activity
[1] = Growth inhibition of human SF539 cells assessed as cell growth at 10 uM incubated for 48 hrs by sulforhodamine B assay; type: functional; details: SF-539, 48 h, read-out: Activity
HT-29 = experiment: Growth inhibition of human HT-29 cells assessed as cell growth at 10 uM incubated for 48 hrs by sulforhodamine B assay; type: functional; details: HT-29, 48 h, read-out: Activity
HCT-15 = experiment: Growth inhibition of human HCT15 cells assessed as cell growth at 10 uM incubated for 48 hrs by sulforhodamine B assay; type: functional; details: HCT-15, 48 h, read-out: Activity
[2] = Growth inhibition of human HCC2998 cells assessed as cell growth at 10 uM incubated for 48 hrs by sulforhodamine B assay; type: functional; details: HCC 2998, 48 h, read-out: Activity
NCI-H522 = experiment: Growth inhibition of human NCI-H522 cells assessed as cell growth at 10 uM incubated for 48 hrs by sulforhodamine B assay; type: functional; details: NCI-H522, 48 h, read-out: Activity
NCI-H23 = experiment: Growth inhibition of human NCI-H23 cells assessed as cell growth at 10 uM incubated for 48 hrs by sulforhodamine B assay; type: functional; details: NCI-H23, 48 h, read-out: Activity
NCI-H226 = experiment: Growth inhibition of human NCI-H226 cells assessed as cell growth at 10 uM incubated for 48 hrs by sulforhodamine B assay; type: functional; details: NCI-H226, 48 h, read-out: Activity
[3] = Growth inhibition of human HOP92 cells assessed as cell growth at 10 uM incubated for 48 hrs by sulforhodamine B assay; type: functional; details: HOP-92, 48 h, read-out: Activity
A549 = experiment: Growth inhibition of human A549/ATCC cells assessed as cell growth at 10 uM incubated for 48 hrs by sulforhodamine B assay; type: functional; details: A549, 48 h, read-out: Activity
SR = experiment: Growth inhibition of human SR cells assessed as cell growth at 10 uM incubated for 48 hrs by sulforhodamine B assay; type: functional; details: read-out: Activity
[4] = Growth inhibition of human RPMI8226 cells assessed as cell growth at 10 uM incubated for 48 hrs by sulforhodamine B assay; type: functional; details: RPMI-8226, 48 h, read-out: Activity
[5] = Growth inhibition of human MOLT4 cells assessed as cell growth at 10 uM incubated for 48 hrs by sulforhodamine B assay; type: functional; details: MOLT-4, 48 h, read-out: Activity
HL-60(TB) = experiment: Growth inhibition of human HL-60(TB) cells assessed as cell growth at 10 uM incubated for 48 hrs by sulforhodamine B assay; type: functional; details: HL-60, 48 h, read-out: Activity
CCRF-CEM = experiment: Growth inhibition of human CCRF-CEM cells assessed as cell growth at 10 uM incubated for 48 hrs by sulforhodamine B assay; type: functional; details: read-out: Activity
SK-MEL-5 = experiment: Growth inhibition of human SK-MEL-5 cells assessed as cell growth at 10 uM incubated for 48 hrs by sulforhodamine B assay; type: functional; details: SK-MEL-5, 48 h, read-out: Activity
IGROV-1 = experiment: Growth inhibition of human IGROV1 cells assessed as cell growth at 10 uM incubated for 48 hrs by sulforhodamine B assay; type: functional; details: IGROV-1, 48 h, read-out: Activity
OVCAR-4 = experiment: Growth inhibition of human OVCAR4 cells assessed as cell growth at 10 uM incubated for 48 hrs by sulforhodamine B assay; type: functional; details: OVCAR-4, 48 h, read-out: Activity
OVCAR-5 = experiment: Growth inhibition of human OVCAR5 cells assessed as cell growth at 10 uM incubated for 48 hrs by sulforhodamine B assay; type: functional; details: OVCAR-5, 48 h, read-out: Activity
OVCAR-8 = experiment: Growth inhibition of human OVCAR8 cells assessed as cell growth at 10 uM incubated for 48 hrs by sulforhodamine B assay; type: functional; details: OVCAR-8, 48 h, read-out: Activity
[6] = Growth inhibition of human NCI-ADR-RES cells assessed as cell growth at 10 uM incubated for 48 hrs by sulforhodamine B assay; type: functional; details: read-out: Activity
ACHN = experiment: Growth inhibition of human ACHN cells assessed as cell growth at 10 uM incubated for 48 hrs by sulforhodamine B assay; type: functional; details: read-out: Activity
CAKI-1 = experiment: Growth inhibition of human Caki1 cells assessed as cell growth at 10 uM incubated for 48 hrs by sulforhodamine B assay; type: functional; details: CAKI-1, 48 h, read-out: Activity
[7] = Growth inhibition of human RXF393 cells assessed as cell growth at 10 uM incubated for 48 hrs by sulforhodamine B assay; type: functional; details: RXF 393, 48 h, read-out: Activity
SN12C = experiment: Growth inhibition of human SN12C cells assessed as cell growth at 10 uM incubated for 48 hrs by sulforhodamine B assay; type: functional; details: read-out: Activity
UO-31 = experiment: Growth inhibition of human UO31 cells assessed as cell growth at 10 uM incubated for 48 hrs by sulforhodamine B assay; type: functional; details: UO-31, 48 h, read-out: Activity
DU-145 [8] = experiment: Growth inhibition of human DU145 cells assessed as cell growth at 10 uM incubated for 48 hrs by sulforhodamine B assay; type: functional; details: DU-145, 48 h, read-out: Activity
MDA-MB-231 = experiment: Growth inhibition of human MDA-MB-231/ATCC cells assessed as cell growth at 10 uM incubated for 48 hrs by sulforhodamine B assay; type: functional; details: MDA-MB-231, 48 h, read-out: Activity
[9] = Growth inhibition of human Hs 578T cells assessed as cell growth at 10 uM incubated for 48 hrs by sulforhodamine B assay; type: functional; details: read-out: Activity
[10] = Growth inhibition of human NCI60 cells assessed as cell growth at 10 uM incubated for 48 hrs by sulforhodamine B assay; type: functional; details: NCI60, 48 h, read-out: Activity
DU-145 [11] = experiment: Antiproliferative activity against human DU145 cells assessed as cell viability incubated for 72 hrs by MTT assay; type: functional, cell-based; details: DU-145, 72 h

Compound | growth at 10 µM (SK-MEL-28) | growth at 10 µM (SK-MEL-2) | growth at 10 µM (M14) | growth at 10 µM (Malme-3M) | growth at 10 µM (U-251) | growth at 10 µM (SNB-19) | growth at 10 µM [1] | growth at 10 µM (HT-29) | growth at 10 µM (HCT-15) | growth at 10 µM [2] | growth at 10 µM (NCI-H522) | growth at 10 µM (NCI-H23) | growth at 10 µM (NCI-H226) | growth at 10 µM [3] | growth at 10 µM (A549) | growth at 10 µM (SR) | growth at 10 µM [4] | growth at 10 µM [5] | growth at 10 µM (HL-60(TB)) | growth at 10 µM (CCRF-CEM) | also measured
O=c1c2ccc(Cl)cc2sc2c(Cl)nc3ccccc3c12 | 102% | 95.5% | 106% | 95.9% | 102% | 108% | 89% | 99.7% | 102% | 123% | 96.8% | 85.1% | 83.4% | 90.8% | 105% | 89% | 100% | 98% | 99.3% | 93.1% | growth at 10 µM (SK-MEL-5): 97.4%; growth at 10 µM (IGROV-1): 96.1%; growth at 10 µM (OVCAR-4): 87.9%; growth at 10 µM (OVCAR-5): 100%; growth at 10 µM (OVCAR-8): 102%; growth at 10 µM [6]: 103%; growth at 10 µM (ACHN): 86.8%; growth at 10 µM (CAKI-1): 94.3%; growth at 10 µM [7]: 103%; growth at 10 µM (SN12C): 95.9%; growth at 10 µM (UO-31): 66.1%; growth at 10 µM (DU-145 [8]): 114%; growth at 10 µM (MDA-MB-231): 84.3%; growth at 10 µM [9]: 95.1%; growth at 10 µM [10]: 98.1%; IC50 (DU-145 [11]): > 15 µM
O=C(O)c1c(Sc2ccc(Cl)cc2)c(O)nc2ccccc12 | 99% | 120% | 107% | 107% | 99.6% | 97.2% | 110% | 101% | 108% | 101% | 81.6% | 92.6% | 106% | 73% | 107% | 106% | 98.1% | 97.2% | 106% | 98.3% | growth at 10 µM (SK-MEL-5): 98.1%; growth at 10 µM (IGROV-1): 104%; growth at 10 µM (OVCAR-4): 98.4%; growth at 10 µM (OVCAR-5): 112%; growth at 10 µM (OVCAR-8): 115%; growth at 10 µM [6]: 97.8%; growth at 10 µM (ACHN): 113%; growth at 10 µM (CAKI-1): 76.3%; growth at 10 µM [7]: 114%; growth at 10 µM (SN12C): 95.8%; growth at 10 µM (UO-31): 68.9%; growth at 10 µM (DU-145 [8]): 115%; growth at 10 µM (MDA-MB-231): 95.7%; growth at 10 µM [9]: 88.3%; growth at 10 µM [10]: 102%; IC50 (DU-145 [11]): > 15 µM
